Results reported in ChEMBL document CHEMBL4507299, “Data for DCP probe PF-04554878” (2021).

Columns and labels:
[1] = target: Tyrosine-protein kinase receptor TYRO3 (Homo sapiens) (UniProt Q06418)
[2] = target: Epidermal growth factor receptor (Homo sapiens) (UniProt P00533)
[3] = target: Tyrosine-protein kinase receptor UFO (Homo sapiens) (UniProt P30530)
[4] = target: Phosphatidylinositol 4,5-bisphosphate 3-kinase catalytic subunit beta isoform (Homo sapiens) (UniProt P42338)
[5] = system: Leucine-rich repeat serine/threonine-protein kinase 2 (Homo sapiens), Q5S007 [G2019S]
[6] = target: Serine/threonine-protein kinase NLK (Homo sapiens) (UniProt Q9UBE8)
[7] = target: Cyclin-G-associated kinase (Homo sapiens) (UniProt O14976)
[8] = target: Serine/threonine-protein kinase PLK4 (Homo sapiens) (UniProt O00444)
[9] = target: Cyclin-dependent kinase 19 (Homo sapiens) (UniProt Q9BWU1)
[10] = target: Histamine H1 receptor (Homo sapiens) (UniProt P35367); settings: Compound concentration 10.0 uM
[11] = target: Death-associated protein kinase 3 (Homo sapiens) (UniProt O43293)
[12] = target: Bone morphogenetic protein receptor type-1A (Homo sapiens) (UniProt P36894)
[13] = target: Serine/threonine-protein kinase D3 (Homo sapiens) (UniProt O94806)
[14] = target: Cyclin-dependent kinase 7 (Homo sapiens) (UniProt P50613)
[15] = target: Receptor-interacting serine/threonine-protein kinase 1 (Homo sapiens) (UniProt Q13546)
[16] = target: Activin receptor type-1 (Homo sapiens) (UniProt Q04771)
[17] = target: Myosin light chain kinase 2, skeletal/cardiac muscle (Homo sapiens) (UniProt Q9H1R3)
[18] = target: Aurora kinase B (Homo sapiens) (UniProt Q96GD4)
[19] = target: Muscle, skeletal receptor tyrosine-protein kinase (Homo sapiens) (UniProt O15146)
[20] = target: Cyclin-dependent kinase 9 (Homo sapiens) (UniProt P50750)
[21] = system: Tyrosine-protein kinase ABL1 (Homo sapiens), P00519 [M351T]
[22] = target: Serine/threonine-protein kinase Chk2 (Homo sapiens) (UniProt O96017)
[23] = system: Tyrosine-protein kinase ABL1 (Homo sapiens), P00519 [Q252H]
[24] = target: T1, Tyrosine-protein kinase ABL1 (Homo sapiens, UniProt P00519)
[25] = target: Cyclin-dependent kinase 2 homolog (Plasmodium falciparum (isolate 3D7)) (UniProt P61075)
[26] = target: Mitogen-activated protein kinase 11 (Homo sapiens) (UniProt Q15759)
[27] = target: Ephrin type-A receptor 7 (Homo sapiens) (UniProt Q15375)
[28] = target: Alpha-2B adrenergic receptor (Homo sapiens) (UniProt P18089); settings: Compound concentration 10.0 uM
[29] = target: Mitogen-activated protein kinase kinase kinase 14 (Homo sapiens) (UniProt Q99558)
[30] = target: Serine/threonine-protein kinase BRSK1 (Homo sapiens) (UniProt Q8TDC3)
[31] = target: Serine/threonine-protein kinase D2 (Homo sapiens) (UniProt Q9BZL6)
[32] = target: Ribosomal protein S6 kinase alpha-3 (Homo sapiens) (UniProt P51812)
[33] = target: Serine/threonine-protein kinase TAO2 (Homo sapiens) (UniProt Q9UL54)
[34] = target: Ribosomal protein S6 kinase alpha-5 (Homo sapiens) (UniProt O75582)
[35] = target: Dual specificity mitogen-activated protein kinase kinase 2 (Homo sapiens) (UniProt P36507)
[36] = system: Phosphatidylinositol 4,5-bisphosphate 3-kinase catalytic subunit alpha isoform (Homo sapiens), P42336 [C420R]
[37] = target: Serine/threonine-protein kinase Nek11 (Homo sapiens) (UniProt Q8NG66)
[38] = system: Receptor-type tyrosine-protein kinase FLT3 (Homo sapiens), P36888 [D835H]
[39] = target: Serine/threonine-protein kinase 25 (Homo sapiens) (UniProt O00506)
[40] = target: Ephrin type-A receptor 2 (Homo sapiens) (UniProt P29317)
[41] = target: Proto-oncogene tyrosine-protein kinase ROS (Homo sapiens) (UniProt P08922)
[42] = target: Serine/threonine-protein kinase Nek7 (Homo sapiens) (UniProt Q8TDX7)
[43] = target: Serine/threonine-protein kinase Nek9 (Homo sapiens) (UniProt Q8TD19)
[44] = target: T1, Tyrosine-protein kinase ABL1; remark: listed apart in the source
[45] = target: Myosin light chain kinase (Homo sapiens) (UniProt Q32MK0)
[46] = Compound concentration 100.0 nM
[47] = Compound concentration 1000.0 nM

Tyrosine-protein kinase receptor TYRO3 (Homo sapiens), sequence (Q06418 whole entry): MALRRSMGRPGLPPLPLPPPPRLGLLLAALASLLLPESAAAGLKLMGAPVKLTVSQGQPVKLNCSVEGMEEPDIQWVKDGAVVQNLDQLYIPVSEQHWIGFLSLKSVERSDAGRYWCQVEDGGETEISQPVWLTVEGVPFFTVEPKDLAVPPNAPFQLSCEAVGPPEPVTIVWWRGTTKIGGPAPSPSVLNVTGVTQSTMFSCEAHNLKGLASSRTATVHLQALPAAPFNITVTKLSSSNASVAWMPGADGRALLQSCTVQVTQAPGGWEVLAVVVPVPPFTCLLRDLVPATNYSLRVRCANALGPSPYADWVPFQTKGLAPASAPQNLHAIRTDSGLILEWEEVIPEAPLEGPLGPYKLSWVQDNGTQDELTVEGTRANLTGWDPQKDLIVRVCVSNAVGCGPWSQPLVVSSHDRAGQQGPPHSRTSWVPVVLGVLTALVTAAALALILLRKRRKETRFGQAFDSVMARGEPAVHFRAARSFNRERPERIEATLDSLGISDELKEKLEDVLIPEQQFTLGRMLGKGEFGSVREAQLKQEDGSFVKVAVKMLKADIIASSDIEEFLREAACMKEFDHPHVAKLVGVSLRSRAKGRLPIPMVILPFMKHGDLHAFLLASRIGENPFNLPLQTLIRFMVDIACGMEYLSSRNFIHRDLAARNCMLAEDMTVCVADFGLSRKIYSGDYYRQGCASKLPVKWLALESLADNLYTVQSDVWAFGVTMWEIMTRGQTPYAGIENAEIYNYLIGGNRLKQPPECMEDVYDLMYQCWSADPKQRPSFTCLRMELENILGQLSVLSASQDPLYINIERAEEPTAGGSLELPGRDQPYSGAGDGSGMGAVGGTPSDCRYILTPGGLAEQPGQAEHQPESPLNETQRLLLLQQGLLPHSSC
Serine/threonine-protein kinase Nek11 (Homo sapiens), sequence (Q8NG66 whole entry): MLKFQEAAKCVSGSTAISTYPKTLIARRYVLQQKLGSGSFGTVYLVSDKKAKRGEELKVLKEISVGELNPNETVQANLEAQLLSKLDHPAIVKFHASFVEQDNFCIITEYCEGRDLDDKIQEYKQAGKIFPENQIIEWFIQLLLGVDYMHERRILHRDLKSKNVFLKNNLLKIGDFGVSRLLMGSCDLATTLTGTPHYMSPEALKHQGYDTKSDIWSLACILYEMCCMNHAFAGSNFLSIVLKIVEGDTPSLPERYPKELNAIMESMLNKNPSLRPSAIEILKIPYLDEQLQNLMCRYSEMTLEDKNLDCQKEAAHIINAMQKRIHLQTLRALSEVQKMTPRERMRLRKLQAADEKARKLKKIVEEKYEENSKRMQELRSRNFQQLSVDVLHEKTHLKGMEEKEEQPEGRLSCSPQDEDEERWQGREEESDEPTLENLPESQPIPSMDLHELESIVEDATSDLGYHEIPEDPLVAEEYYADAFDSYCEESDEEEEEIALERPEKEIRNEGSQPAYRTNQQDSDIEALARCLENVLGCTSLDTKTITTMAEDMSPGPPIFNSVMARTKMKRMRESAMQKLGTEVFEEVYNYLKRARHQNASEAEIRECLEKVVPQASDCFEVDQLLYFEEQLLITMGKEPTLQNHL
Cyclin-dependent kinase 9 (Homo sapiens), sequence (P50750 whole entry): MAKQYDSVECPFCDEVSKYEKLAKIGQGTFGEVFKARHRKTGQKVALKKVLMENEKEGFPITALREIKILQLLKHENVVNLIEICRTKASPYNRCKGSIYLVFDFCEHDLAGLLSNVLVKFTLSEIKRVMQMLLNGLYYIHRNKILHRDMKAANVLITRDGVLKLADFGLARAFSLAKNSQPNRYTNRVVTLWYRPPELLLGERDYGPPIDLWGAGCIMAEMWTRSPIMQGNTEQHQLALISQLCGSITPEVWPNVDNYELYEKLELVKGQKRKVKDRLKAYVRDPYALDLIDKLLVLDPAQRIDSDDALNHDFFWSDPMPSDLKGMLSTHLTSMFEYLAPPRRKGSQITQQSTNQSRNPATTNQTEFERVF
Epidermal growth factor receptor (Homo sapiens), sequence (P00533 whole entry): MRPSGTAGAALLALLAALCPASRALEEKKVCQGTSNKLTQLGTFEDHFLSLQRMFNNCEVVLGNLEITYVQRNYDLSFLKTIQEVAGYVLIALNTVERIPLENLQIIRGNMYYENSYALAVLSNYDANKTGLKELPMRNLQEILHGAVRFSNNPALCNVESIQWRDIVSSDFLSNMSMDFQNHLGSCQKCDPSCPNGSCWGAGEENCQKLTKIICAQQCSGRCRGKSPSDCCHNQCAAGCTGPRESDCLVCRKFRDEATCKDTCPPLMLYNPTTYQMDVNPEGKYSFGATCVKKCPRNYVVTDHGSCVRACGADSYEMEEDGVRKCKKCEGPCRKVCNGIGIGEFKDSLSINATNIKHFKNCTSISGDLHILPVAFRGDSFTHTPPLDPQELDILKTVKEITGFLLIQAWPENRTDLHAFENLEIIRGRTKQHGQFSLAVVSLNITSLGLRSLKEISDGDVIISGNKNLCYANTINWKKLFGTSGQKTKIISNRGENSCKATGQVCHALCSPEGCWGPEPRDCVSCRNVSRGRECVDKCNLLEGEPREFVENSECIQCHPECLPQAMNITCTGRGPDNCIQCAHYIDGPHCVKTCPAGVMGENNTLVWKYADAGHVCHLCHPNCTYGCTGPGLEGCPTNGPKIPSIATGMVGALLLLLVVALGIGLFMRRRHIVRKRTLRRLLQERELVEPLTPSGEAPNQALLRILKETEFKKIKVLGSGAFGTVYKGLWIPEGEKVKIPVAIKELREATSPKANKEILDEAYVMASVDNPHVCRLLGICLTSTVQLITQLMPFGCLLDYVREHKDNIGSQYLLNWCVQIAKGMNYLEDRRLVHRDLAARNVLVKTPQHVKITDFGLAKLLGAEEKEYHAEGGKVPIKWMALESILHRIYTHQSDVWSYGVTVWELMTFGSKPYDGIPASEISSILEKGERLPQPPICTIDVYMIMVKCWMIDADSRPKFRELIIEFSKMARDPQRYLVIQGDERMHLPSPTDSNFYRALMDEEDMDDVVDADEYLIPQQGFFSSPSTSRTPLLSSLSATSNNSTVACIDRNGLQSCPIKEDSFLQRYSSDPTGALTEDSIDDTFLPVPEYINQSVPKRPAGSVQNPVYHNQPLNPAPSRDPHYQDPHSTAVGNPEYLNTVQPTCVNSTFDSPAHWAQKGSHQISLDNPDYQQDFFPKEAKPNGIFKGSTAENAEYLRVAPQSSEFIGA
Activin receptor type-1 (Homo sapiens), sequence (Q04771 whole entry): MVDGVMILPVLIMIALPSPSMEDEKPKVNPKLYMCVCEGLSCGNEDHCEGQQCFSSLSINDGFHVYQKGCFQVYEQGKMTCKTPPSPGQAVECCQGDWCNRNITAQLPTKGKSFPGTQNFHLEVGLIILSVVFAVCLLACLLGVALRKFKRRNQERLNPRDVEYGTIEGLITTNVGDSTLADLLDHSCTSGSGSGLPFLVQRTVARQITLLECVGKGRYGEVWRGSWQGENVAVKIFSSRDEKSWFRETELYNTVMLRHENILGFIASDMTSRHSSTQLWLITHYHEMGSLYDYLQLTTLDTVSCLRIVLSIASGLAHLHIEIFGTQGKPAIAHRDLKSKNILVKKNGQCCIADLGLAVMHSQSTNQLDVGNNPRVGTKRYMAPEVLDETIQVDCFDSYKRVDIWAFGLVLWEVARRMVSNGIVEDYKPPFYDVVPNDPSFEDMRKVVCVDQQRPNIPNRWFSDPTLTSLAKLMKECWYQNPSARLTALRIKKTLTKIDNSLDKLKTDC
Ephrin type-A receptor 2 (Homo sapiens), sequence (P29317 whole entry): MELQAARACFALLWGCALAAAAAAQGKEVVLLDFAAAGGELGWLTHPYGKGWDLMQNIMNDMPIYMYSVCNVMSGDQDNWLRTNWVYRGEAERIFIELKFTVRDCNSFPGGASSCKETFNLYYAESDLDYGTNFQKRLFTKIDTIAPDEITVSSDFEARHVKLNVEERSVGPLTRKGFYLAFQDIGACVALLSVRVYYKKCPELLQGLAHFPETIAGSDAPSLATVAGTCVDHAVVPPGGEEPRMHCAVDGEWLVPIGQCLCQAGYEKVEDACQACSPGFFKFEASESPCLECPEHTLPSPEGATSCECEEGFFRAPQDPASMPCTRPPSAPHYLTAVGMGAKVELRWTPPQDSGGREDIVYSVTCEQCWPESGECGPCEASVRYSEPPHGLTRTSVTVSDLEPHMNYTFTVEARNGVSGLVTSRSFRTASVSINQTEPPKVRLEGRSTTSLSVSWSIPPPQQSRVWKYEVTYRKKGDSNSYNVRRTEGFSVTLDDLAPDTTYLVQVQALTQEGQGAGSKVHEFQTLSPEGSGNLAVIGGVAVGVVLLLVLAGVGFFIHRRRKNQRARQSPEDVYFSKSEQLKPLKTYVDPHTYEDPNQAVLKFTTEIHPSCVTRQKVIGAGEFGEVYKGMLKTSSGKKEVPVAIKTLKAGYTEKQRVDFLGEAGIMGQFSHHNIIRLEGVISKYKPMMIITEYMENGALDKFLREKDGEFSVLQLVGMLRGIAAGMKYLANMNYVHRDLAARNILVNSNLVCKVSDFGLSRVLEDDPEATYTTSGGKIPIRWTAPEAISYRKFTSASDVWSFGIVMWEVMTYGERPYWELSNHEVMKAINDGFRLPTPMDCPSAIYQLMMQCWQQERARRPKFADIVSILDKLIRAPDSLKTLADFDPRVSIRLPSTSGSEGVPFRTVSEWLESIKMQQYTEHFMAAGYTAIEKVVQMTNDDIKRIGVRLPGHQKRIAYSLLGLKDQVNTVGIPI
Cyclin-dependent kinase 7 (Homo sapiens), sequence (P50613 whole entry): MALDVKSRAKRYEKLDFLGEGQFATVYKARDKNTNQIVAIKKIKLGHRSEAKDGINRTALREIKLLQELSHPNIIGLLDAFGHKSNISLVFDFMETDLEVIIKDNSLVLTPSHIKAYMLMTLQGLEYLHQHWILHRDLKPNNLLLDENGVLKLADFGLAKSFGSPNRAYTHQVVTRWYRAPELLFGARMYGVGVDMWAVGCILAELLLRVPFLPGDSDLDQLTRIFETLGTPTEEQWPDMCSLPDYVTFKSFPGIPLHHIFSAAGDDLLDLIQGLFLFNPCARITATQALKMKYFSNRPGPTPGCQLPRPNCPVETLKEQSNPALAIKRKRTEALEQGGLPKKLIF

**Q.** CNC(=O)c1ccc(Nc2ncc(C(F)(F)F)c(NCc3nccnc3N(C)S(C)(=O)=O)n2)cc1 [DEFACTINIB] was tested. Which residual activity [1, 46] did it give?
**A.** 100%

**Q.** What about the residual activity [2, 46] of the same compound?
**A.** 88%

**Q.** And the residual activity [3, 46]?
**A.** 51%

**Q.** And the residual activity [4, 46]?
**A.** 45%

**Q.** What about the residual activity [5, 46] of the same compound?
**A.** 65%

**Q.** And the residual activity [6, 46]?
**A.** 100%

**Q.** And the residual activity [7, 46]?
**A.** 69%

**Q.** What about the residual activity [8, 46] of the same compound?
**A.** 79%

**Q.** What about the residual activity [9, 46] of the same compound?
**A.** 100%

**Q.** And the inhibition [10]?
**A.** -3.38%

**Q.** What about the residual activity [11, 46] of the same compound?
**A.** 75%

**Q.** And the residual activity [12, 46]?
**A.** 100%

**Q.** What about the residual activity [13, 46] of the same compound?
**A.** 100%

**Q.** And the residual activity [14, 46]?
**A.** 59%

**Q.** What about the residual activity [15, 46] of the same compound?
**A.** 100%

**Q.** What about the residual activity [16, 46] of the same compound?
**A.** 100%

**Q.** And the residual activity [17, 46]?
**A.** 63%

**Q.** And the residual activity [18, 46]?
**A.** 73%

**Q.** What about the residual activity [19, 46] of the same compound?
**A.** 100%

**Q.** What about the residual activity [20, 46] of the same compound?
**A.** 86%

**Q.** What about the residual activity [21, 46] of the same compound?
**A.** 100%

**Q.** And the residual activity [22, 46]?
**A.** 100%

**Q.** And the residual activity [23, 46]?
**A.** 98%

**Q.** What about the residual activity [24, 46] of the same compound?
**A.** 88%

**Q.** What about the residual activity [25, 46] of the same compound?
**A.** 89%

**Q.** What about the residual activity [26, 46] of the same compound?
**A.** 76%

**Q.** And the residual activity [27, 46]?
**A.** 68%

**Q.** What about the inhibition [28] of the same compound?
**A.** 5.76%

**Q.** And the residual activity [29, 46]?
**A.** 92%

**Q.** What about the residual activity [30, 46] of the same compound?
**A.** 100%

**Q.** And the residual activity [31, 46]?
**A.** 100%

**Q.** And the residual activity [32, 46]?
**A.** 82%

**Q.** And the residual activity [33, 46]?
**A.** 92%

**Q.** And the residual activity [34, 46]?
**A.** 81%

**Q.** And the residual activity [35, 46]?
**A.** 100%

**Q.** And the residual activity [36, 46]?
**A.** 100%

**Q.** And the residual activity [37, 46]?
**A.** 89%

**Q.** What about the residual activity [38, 46] of the same compound?
**A.** 9.8%

**Q.** And the residual activity [39, 46]?
**A.** 85%

**Q.** And the residual activity [40, 46]?
**A.** 86%

**Q.** And the residual activity [41, 46]?
**A.** 58%

**Q.** And the residual activity [42, 46]?
**A.** 70%

**Q.** What about the residual activity [43, 46] of the same compound?
**A.** 80%

**Q.** What about the residual activity [44, 46] of the same compound?
**A.** 100%

**Q.** What about the residual activity [45, 46] of the same compound?
**A.** 100%

**Q.** Which results are given for CN(c1ccnc(CNc2nc(Nc3ccc4c(c3)CC(=O)N4)ncc2C(F)(F)F)n1)S(C)(=O)=O [PF-00911705]?
**A.** residual activity [1, 47]: 99%; residual activity [2, 47]: 74%; residual activity [3, 47]: 21%; residual activity [4, 47]: 100%; residual activity [5, 47]: 7.3%; residual activity [6, 47]: 98%; residual activity [7, 47]: 66%; residual activity [8, 47]: 50%; residual activity [9, 47]: 84%; inhibition [10]: 21.4%; residual activity [11, 47]: 33%; residual activity [12, 47]: 89%; residual activity [13, 47]: 100%; residual activity [14, 47]: 3.5%; residual activity [15, 47]: 100%; residual activity [16, 47]: 91%; residual activity [17, 47]: 53%; residual activity [18, 47]: 9.9%; residual activity [19, 47]: 92%; residual activity [20, 47]: 84%; residual activity [21, 47]: 62%; residual activity [22, 47]: 0%; residual activity [23, 47]: 94%; residual activity [24, 47]: 77%; residual activity [25, 47]: 75%; residual activity [26, 47]: 85%; residual activity [27, 47]: 87%; inhibition [28]: -4.21%; residual activity [29, 47]: 65%; residual activity [30, 47]: 43%; residual activity [31, 47]: 92%; residual activity [32, 47]: 25%; residual activity [33, 47]: 58%; residual activity [34, 47]: 96%; residual activity [35, 47]: 82%; residual activity [36, 47]: 91%; residual activity [37, 47]: 100%; residual activity [38, 47]: 15%; residual activity [39, 47]: 82%; residual activity [40, 47]: 80%; residual activity [41, 47]: 43%; residual activity [42, 47]: 68%; residual activity [43, 47]: 63%; residual activity [44, 47]: 40%; residual activity [45, 47]: 100%
